From patent publication US10029992B2, “Diaminotriazine compounds and their use as herbicides” (BASF SE, priority 2014, dated 2018)

What was measured:
Test in all cases: Greenhouse experiment, pre-emergence treatment
Conditions in all cases: pre-emergence method
AMARE = format: in vivo, Amaranthus retroflexus
From the text: (§1) The seeds of the test plants were sown separately for each species. For the pre-emergence treatment, the active ingredients, which had been suspended or emulsified in water, were applied directly after sowing by means of finely distributing nozzles. The containers were irrigated gently to promote germination and growth and subsequently covered with transparent plastic hoods until the plants had rooted. This cover caused uniform germination of the test plants, unless this had been impaired by the active ingredients. Depending on the species, the plants were kept at 10-25° C. or 20-35° C., respectively. The test period extended over 2 to 4 weeks. During this time, the plants were tended, and their response to the individual treatments was evaluated. Evaluation was carried out using a scale from 0 to 100. 100 means no emergence of the plants, or complete destruction of at least the aerial moieties, and 0 means no damage, or normal course of growth. A moderate herbicidal activity is given at values of at least 60, a good herbicidal activity is given at values of at least 70, and a very good herbicidal activity is given at values of at least 85. […] [table]

APESV = format: in vivo, Apera spica-venti
From the text: (§2) The culture containers used were plastic flowerpots containing loamy sand with approximately 3.0% of humus as the substrate. The seeds of the test plants were sown separately for each species.
(§3) For the pre-emergence treatment, the active ingredients, which had been suspended or emulsified in water, were applied directly after sowing by means of finely distributing nozzles. The containers were irrigated gently to promote germination and growth and subsequently covered with transparent plastic hoods until the plants had rooted. This cover caused uniform germination of the test plants, unless this had been impaired by the active ingredients.
(§4) Depending on the species, the plants were kept at 10-25° C. or 20-35° C., respectively.
(§5) The test period extended over 2 to 4 weeks. During this time, the plants were tended, and their response to the individual treatments was evaluated.
(§6) Evaluation was carried out using a scale from 0 to 100. 100 means no emergence of the plants, or complete destruction of at least the aerial moieties, and 0 means no damage, or normal course of growth. A moderate herbicidal activity is given at values of at least 60, a good herbicidal activity is given at values of at least 70, and a very good herbicidal activity is given at values of at least 85.
(§7) The plants used in the greenhouse experiments were of the following species: […]

ECHCG = format: in vivo, Echinochloa crus-galli
From the text: as §2, §3, §4, §5, §6, §7

SETFA = format: in vivo, Setaria faberi
From the text: as §1

Compound: Cc1cc(OCC2CCC2)cc(Oc2cccc(F)c2Nc2nc(N)nc(C(C)(C)F)n2)c1 [Example 83]
- herbicidal activity against AMARA (AMARE; application rate 250 g/ha): very good (a very good herbicidal activity is given at values of at least 85)
- herbicidal activity against APESV (APESV; application rate 250 g/ha): good (a good herbicidal activity is given at values of at least 70)
- herbicidal activity against ECHCG (ECHCG; application rate 250 g/ha): good (a good herbicidal activity is given at values of at least 70)

Compound: CCC(C)(F)c1nc(N)nc(Nc2c(F)cccc2Oc2cc(C)cc(C)c2)n1 (centres unmarked) [Example 32]
- herbicidal activity against APESV (APESV; application rate 0.25 kg/ha): very good (a very good herbicidal activity is given at values of at least 85)
- herbicidal activity against ECHCG (ECHCG; application rate 0.25 kg/ha): very good (a very good herbicidal activity is given at values of at least 85)
- herbicidal activity against SETFA (SETFA; application rate 0.25 kg/ha): very good (a very good herbicidal activity is given at values of at least 85)

Compound: Cc1cc(Oc2cccc(F)c2Nc2nc(N)nc(C(C)(C)F)n2)cc(OC2CCCCC2)c1 [Example 86]
- herbicidal activity against SEFTA (SETFA; application rate 500 g/ha): good (a good herbicidal activity is given at values of at least 70)

Compound: Cc1cc(Oc2cccc(F)c2Nc2nc(N)nc(C(C)(C)F)n2)cc(OC2CCCC2)c1 [Example 85]
- herbicidal activity against AMARA (AMARE; application rate 250 g/ha): very good (a very good herbicidal activity is given at values of at least 85)

Compound: CC(C)(F)c1nc(N)nc(Nc2c(F)c(F)cc(-c3ccccc3)c2F)n1 [Example 44]
- herbicidal activity against AMARE (AMARE; application rate 0.5 kg/ha): good to very good
- herbicidal activity against SETFA (SETFA; application rate 0.5 kg/ha): good (a good herbicidal activity is given at values of at least 70)

Compound: COC(=O)c1cccc(Oc2cccc(F)c2Nc2nc(N)nc(C(C)(C)F)n2)c1 [Example 91]
- herbicidal activity against APESV (APESV; application rate 500 g/ha): very good (a very good herbicidal activity is given at values of at least 85)

Compound: COc1cc(OC)cc(Oc2cccc(F)c2Nc2nc(N)nc(C(C)(C)F)n2)c1 [Example 27]
- herbicidal activity against APESV (APESV; application rate 0.25 kg/ha): very good (a very good herbicidal activity is given at values of at least 85)
- herbicidal activity against ECHCG (ECHCG; application rate 0.25 kg/ha): very good (a very good herbicidal activity is given at values of at least 85)
- herbicidal activity against SETFA (SETFA; application rate 0.25 kg/ha): very good (a very good herbicidal activity is given at values of at least 85)

Compound: COc1cc(I)cc(Oc2cccc(F)c2Nc2nc(N)nc(C(C)(C)F)n2)c1 [Example 84]
- herbicidal activity against AMARA (AMARE; application rate 250 g/ha): very good (a very good herbicidal activity is given at values of at least 85)
- herbicidal activity against ECHCG (ECHCG; application rate 250 g/ha): very good (a very good herbicidal activity is given at values of at least 85)
- herbicidal activity against SETFA (SETFA; application rate 250 g/ha): very good (a very good herbicidal activity is given at values of at least 85)

Compound: CC(C)(F)c1nc(N)nc(Nc2c(F)cccc2Oc2cccc(C(F)(F)F)c2)n1 [Example 88]
- herbicidal activity against AMARA (AMARE; application rate 500 g/ha): very good (a very good herbicidal activity is given at values of at least 85)
- herbicidal activity against ECHCG (ECHCG; application rate 500 g/ha): very good (a very good herbicidal activity is given at values of at least 85)
- herbicidal activity against SETFA (SETFA; application rate 500 g/ha): very good (a very good herbicidal activity is given at values of at least 85)

Compound: CC(C)(C)c1cccc(Oc2cccc(F)c2Nc2nc(N)nc(C(C)(C)F)n2)c1 [Example 92]
- herbicidal activity against APESV (APESV; application rate 500 g/ha): very good (a very good herbicidal activity is given at values of at least 85)
- herbicidal activity against ECHCG (ECHCG; application rate 500 g/ha): very good (a very good herbicidal activity is given at values of at least 85)
- herbicidal activity against SETFA (SETFA; application rate 500 g/ha): very good (a very good herbicidal activity is given at values of at least 85)

Compound: Cc1cc(C)cc(Oc2cccc(Cl)c2Nc2nc(N)nc(C(C)(C)F)n2)c1 [Example 37]
- herbicidal activity against APESV (APESV; application rate 0.25 kg/ha): very
- herbicidal activity against ECHCG (ECHCG; application rate 0.25 kg/ha): good (a good herbicidal activity is given at values of at least 70)

Compound: CN(c1ccccc1)c1cccc(F)c1Nc1nc(N)nc(C(C)(C)F)n1 [Example 102]
- herbicidal activity against AMARE (AMARE; application rate 1000 g/ha): very good (a very good herbicidal activity is given at values of at least 85)
- herbicidal activity against ECHCG (ECHCG; application rate 1000 g/ha): very good (a very good herbicidal activity is given at values of at least 85)
- herbicidal activity against SEFTA (SETFA; application rate 1000 g/ha): very good (a very good herbicidal activity is given at values of at least 85)

Compound: Cc1cc(C)cc(Oc2cccc(F)c2Nc2nc(N)nc(C(C)C)n2)c1 [Example 19]
- herbicidal activity against APESV (APESV; application rate 0.25 kg/ha): very good (a very good herbicidal activity is given at values of at least 85)
- herbicidal activity against APESV (APESV; application rate 250 g/ha): very good (a very good herbicidal activity is given at values of at least 85)
- herbicidal activity against ECHCG (ECHCG; application rate 0.25 kg/ha): very good (a very good herbicidal activity is given at values of at least 85)
- herbicidal activity against ECHCG (ECHCG; application rate 250 g/ha): very good (a very good herbicidal activity is given at values of at least 85)
- herbicidal activity against SETFA (SETFA; application rate 0.25 kg/ha): very good (a very good herbicidal activity is given at values of at least 85)
- herbicidal activity against SEFTA (SETFA; application rate 250 g/ha): very good (a very good herbicidal activity is given at values of at least 85)

Compound: CC(C)(F)c1nc(N)nc(Nc2c(F)cccc2Oc2cccc(OC(F)F)c2)n1 [Example 95]
- herbicidal activity against APESV (APESV; application rate 500 g/ha): very good (a very good herbicidal activity is given at values of at least 85)
- herbicidal activity against ECHCG (ECHCG; application rate 500 g/ha): very good (a very good herbicidal activity is given at values of at least 85)
- herbicidal activity against SETFA (SETFA; application rate 500 g/ha): very good (a very good herbicidal activity is given at values of at least 85)

Compound: Cc1cc(C)cc(Oc2cccc(F)c2Nc2nc(N)nc(CC(C)C)n2)c1 [Example 17]
- herbicidal activity against APESV (APESV; application rate 1000 g/ha): good (a good herbicidal activity is given at values of at least 70)
- herbicidal activity against SEFTA (SETFA; application rate 1000 g/ha): very good (a very good herbicidal activity is given at values of at least 85)

Compound: CC(C)(F)c1nc(N)nc(Nc2c(F)cccc2Oc2cc(OC(F)(F)F)cc(-c3ccccc3)c2)n1 [Example 98]
- herbicidal activity against AMARE (AMARE; application rate 500 g/ha): very good (a very good herbicidal activity is given at values of at least 85)
- herbicidal activity against ECHCG (ECHCG; application rate 500 g/ha): very good (a very good herbicidal activity is given at values of at least 85)
- herbicidal activity against SETFA (SETFA; application rate 500 g/ha): very good (a very good herbicidal activity is given at values of at least 85)

Compound: CC(C)(F)c1nc(N)nc(Nc2c(F)cccc2Oc2cc(-c3ccccc3)cc(C(F)(F)F)c2)n1 [Example 87]
- herbicidal activity against AMARA (AMARE; application rate 500 g/ha): very good (a very good herbicidal activity is given at values of at least 85)
- herbicidal activity against ECHCG (ECHCG; application rate 500 g/ha): very good (a very good herbicidal activity is given at values of at least 85)
- herbicidal activity against SETFA (SETFA; application rate 500 g/ha): very good (a very good herbicidal activity is given at values of at least 85)

Compound: CCc1cccc(Oc2cccc(F)c2Nc2nc(N)nc(C(C)(C)F)n2)c1 [Example 90]
- herbicidal activity against AMARE (AMARE; application rate 500 g/ha): very good (a very good herbicidal activity is given at values of at least 85)
- herbicidal activity against APESV (APESV; application rate 500 g/ha): very good (a very good herbicidal activity is given at values of at least 85)
- herbicidal activity against ECHCG (ECHCG; application rate 500 g/ha): very good (a very good herbicidal activity is given at values of at least 85)

Compound: CC(C)(F)c1nc(N)nc(Nc2c(F)cccc2Oc2cccc(Cl)c2)n1 [Example 94]
- herbicidal activity against APESV (APESV; application rate 500 g/ha): very good (a very good herbicidal activity is given at values of at least 85)
- herbicidal activity against ECHCG (ECHCG; application rate 500 g/ha): very good (a very good herbicidal activity is given at values of at least 85)
- herbicidal activity against SETFA (SETFA; application rate 500 g/ha): very good (a very good herbicidal activity is given at values of at least 85)

Compound: CC(C)(F)c1nc(N)nc(Nc2c(F)cccc2Oc2cccc(F)c2)n1 [Example 10]
- herbicidal activity against AMARE (AMARE; application rate 0.5 kg/ha): very good (a very good herbicidal activity is given at values of at least 85)
- herbicidal activity against APESV (APESV; application rate 0.5 kg/ha): very good (a very good herbicidal activity is given at values of at least 85)
- herbicidal activity against ECHCG (ECHCG; application rate 0.5 kg/ha): very good (a very good herbicidal activity is given at values of at least 85)

Compound: Cc1cccc(N(C)c2cccc(F)c2Nc2nc(N)nc(C(C)(C)F)n2)c1 [Example 103]
- herbicidal activity against AMARE (AMARE; application rate 500 g/ha): very good (a very good herbicidal activity is given at values of at least 85)
- herbicidal activity against ECHCG (ECHCG; application rate 500 g/ha): very good (a very good herbicidal activity is given at values of at least 85)
- herbicidal activity against SEFTA (SETFA; application rate 500 g/ha): very good (a very good herbicidal activity is given at values of at least 85)

Compound: CN(C)c1cc(Oc2cccc(F)c2Nc2nc(N)nc(C(C)(C)F)n2)cc(C(F)(F)F)c1 [Example 80]
- herbicidal activity against ECHCG (ECHCG; application rate 125 g/ha): very good (a very good herbicidal activity is given at values of at least 85)
- herbicidal activity against SETFA (SETFA; application rate 125 g/ha): very good (a very good herbicidal activity is given at values of at least 85)

Compound: CC(C)(F)c1nc(N)nc(Nc2c(F)cccc2Oc2cccc(Br)c2)n1 [Example 93]
- herbicidal activity against APESV (APESV; application rate 500 g/ha): very good (a very good herbicidal activity is given at values of at least 85)
- herbicidal activity against ECHCG (ECHCG; application rate 500 g/ha): very good (a very good herbicidal activity is given at values of at least 85)
- herbicidal activity against SETFA (SETFA; application rate 500 g/ha): very good (a very good herbicidal activity is given at values of at least 85)
